Measurements reported in patent US20040038888A1 (priority 2002, published 2004).

How the values were obtained:
[1] = tested on: hippocampal NSC/neural progenitors cells; assay: PACAP/BrdU infusion, BrdU labelling of the dentate gyrus; type: in vivo, mouse; conditions: 600 nM pump concentration, 0.5 μl/hr into the lateral ventricle, 3.5 days, relative to vehicle
Description: 10 week old male mice (C57B1/2), maintained on a 12 hr light/dark cycle with food and water ad libidum, were infused in the right lateral ventricle with PACAP38 (Bachem), using a Alzet pump (1007D), for 3,5 days or 7 days at a daily dose of 31 ng/day (600 nM PACAP pump concentration infused at a rate of 0.5 μl/hr). Bromodeoxyuridine (BrdU) (50 mg/ml) was also included in the infusion vehicle (0.9% saline containing 1 mg/ml mouse serum albumin (Sigma)) to enable measurement of proliferation by quantitation of BrdU incorporation in the DNA. The group of infused with either PACAP/BrdU or vehicle/BrdU for 3,5 days and sacrificed at this time point. […]
Brains were cut into 14-μm coronal sections using a cryostat-microtome. […] After 1 hour of washing, the BrdU-antibody complex was detected using 0.05% diaminobenzidine with 0.01% H2O2, and counterstained with Hematoxylin. […]
For all BrdU labelling experiments, three to six sections per animal were analysed. […] The number of BrdU-labelled cells per area of dentate granule cell layer was counted manually. […] BrdU-positive cells were counted along 2×250 micrometer strips of the lateral ventricle wall (see FIG. 18). Area measurements of both the dentate granule cell layer and the “counted” region of the lateral ventricle wall (including the ependymal cell layer and subventricular zone) were made from each slide used for the cell counts. […]

hippocampal neurogenesis = assay: PACAP/BrdU infusion, BrdU/NeuN co-labelling of the dentate gyrus; type: in vivo, mouse; conditions: 600 nM pump concentration, 0.5 μl/hr, 7 days infusion plus 10 days survival, relative to vehicle
Description: 10 week old male mice (C57B1/2), maintained on a 12 hr light/dark cycle with food and water ad libidum, were infused in the right lateral ventricle with PACAP38 (Bachem), using a Alzet pump (1007D), for 3,5 days or 7 days at a daily dose of 31 ng/day (600 nM PACAP pump concentration infused at a rate of 0.5 μl/hr). Bromodeoxyuridine (BrdU) (50 mg/ml) was also included in the infusion vehicle (0.9% saline containing 1 mg/ml mouse serum albumin (Sigma)) to enable measurement of proliferation by quantitation of BrdU incorporation in the DNA. The group of infused with either PACAP/BrdU or vehicle/BrdU for 3,5 days and sacrificed at this time point. The group infused with either PACAP/BrdU or vehicle/BrdU for 7 days were allowed to survive a further 10 days. After the allotted time the mice were sacrificed, perfused with PBS the brains removed and frozen at −70° C. prior to sectioning for immumohistochemical analysis.
The procedure for doubling labeling of BrdU with NeuN was performed sequentially. […]
For all BrdU/NeuN co-labelling experiments, one to two sections per animal were analysed. […] The number of BrdU/NeuN-labelled cells per area of dentate granule cell layer was counted manually. […] Results of the dentate gyrus BrdU/NeuN counts are expressed as the average number of BrdU/NeuN-positive cells per dentate gyrus for each individual animal and reported as the mean ±SEM.

[2] = tested on: mouse adult neural stem cells; assay: Thymidine incorporation, adult mouse NSC, non-adherent culture; type: cell-based; conditions: non-adherent conditions, 3 days, all PACAP treatments relative to controls
Description: To determine thymidine incorporation into DNA, neurospheres were split and seeded in Neurosphere medium as single cells in 96-well plates, 10,000 cells/well. Substances to be measured were added in quadruplicates and cells were incubated at 37° C. for 3 days. 3H-thymidine, 10 uCi/ml, was present the last 24 hours. Cells were harvested on to a filter paper and radioactivity was measured. 3H-thymidine (6,7 Ci/mmol) was from PerkinElmer.

“pituitary adenylate cyclase-activating polypeptide [PACAP]” was tested, and the “proliferation in the ipsilateral dentate gyrus (BrdU positive cells/mm^2)” value [1] was “significant increase in proliferation”, the “neurogenesis in the ipsilateral dentate gyrus (BrdU/NeuN positive cells/dentate gyrus)” value (hippocampal neurogenesis) was “increase in neurogenesis” and the “incorporation of tritiated thymidine” value [2] was “Greater incorporation of tritiated thymidine”.
